Test results published in the NIST ThermoML archive (doi:10.1016/j.jct.2019.02.011).

Experiment: xn = mol fraction of the nth substance listed
Conditions: 293.15 K, Liquid, Vibrating tube method

COC(=O)OC [dimethyl carbonate] + CO
mass density [kg/m3]
Conditions	10000 kPa	15000 kPa	20000 kPa	25000 kPa	30000 kPa	35000 kPa
x1 = 0.0253	–	819.01	822.93	826.85	830.45	833.84
x1 = 0.0503	–	832.64	836.57	840.49	844.1	847.49
x1 = 0.0745	–	845.15	849.09	853.02	856.63	860.04
x1 = 0.101	–	858.22	862.17	866.1	869.72	873.13
x1 = 0.1502	–	880.67	884.64	888.56	892.2	895.68
x1 = 0.2059	–	903.9	907.88	911.86	915.51	919
x1 = 0.25	916.63	920.72	924.71	928.69	932.36	935.81
x1 = 0.3004	934.21	938.3	942.31	946.29	949.97	953.48
x1 = 0.3426	947.86	951.96	955.98	959.96	963.65	967.16
x1 = 0.3984	964.54	968.64	972.68	976.66	980.36	983.88
x1 = 0.4514	979.07	983.17	987.22	991.16	994.86	998.4
x1 = 0.5054	992.67	996.78	1000.83	1004.77	1008.44	1011.98
x1 = 0.5509	1003.27	1007.38	1011.44	1015.38	1019.05	1022.6
x1 = 0.6002	1013.92	1018.04	1022.11	1026.05	1029.73	1033.28
x1 = 0.6469	1023.3	1027.41	1031.49	1035.43	1039.12	1042.68
x1 = 0.6993	1033.07	1037.19	1041.28	1045.22	1048.91	1052.48
x1 = 0.7496	1041.86	1045.98	1050.08	1054.02	1057.72	1061.24
x1 = 0.799	1050.01	1054.09	1058.13	1062.08	1065.78	1069.31
x1 = 0.837	1055.93	1060.01	1064.06	1068.01	1071.71	1075.29
x1 = 0.9093	1066.58	1070.66	1074.72	1078.67	1082.38	1085.91
x1 = 0.9239	1068.62	1072.7	1076.76	1080.71	1084.42	1087.96
x1 = 0.9575	1073.25	1077.33	1081.4	1085.34	1089.06	–
x1 = 0.9861	1077.09	1081.17	1085.23	1089.18	1092.9	–
x1 = 1	1078.93	1083.01	1087.08	1091.03	1094.75	–
